# Test results published in ChEMBL document CHEMBL1137546, “The discovery of indole-derived long acting beta2-adrenoceptor agonists for the treatment of asthma and COPD” (Bioorg Med Chem Lett, 2007).
# Legend:
# [1] = Lipophilicity, log D of the compound; type: physicochemical; conditions: octanol/water
# [2] = organism: Homo sapiens; assay: Ratio of EC50 for human recombinant adrenergic beta-2 receptor to EC50 for human recombinant adrenergic beta-1 receptor
# [3] = biological target: Beta-2 adrenergic receptor (Homo sapiens, UniProt P07550)
# Sequence of Beta-2 adrenergic receptor (P07550 whole entry): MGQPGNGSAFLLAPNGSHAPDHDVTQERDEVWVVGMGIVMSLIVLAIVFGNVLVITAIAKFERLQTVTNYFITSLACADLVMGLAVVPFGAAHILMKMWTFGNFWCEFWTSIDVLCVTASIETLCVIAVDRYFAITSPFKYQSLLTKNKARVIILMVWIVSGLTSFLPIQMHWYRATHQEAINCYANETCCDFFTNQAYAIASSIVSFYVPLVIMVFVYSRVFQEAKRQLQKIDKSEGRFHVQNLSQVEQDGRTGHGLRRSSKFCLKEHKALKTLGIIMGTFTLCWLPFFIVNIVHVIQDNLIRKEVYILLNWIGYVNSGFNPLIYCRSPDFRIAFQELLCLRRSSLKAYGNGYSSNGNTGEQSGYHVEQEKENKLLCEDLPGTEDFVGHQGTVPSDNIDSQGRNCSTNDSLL
# Description: Agonist activity at human recombinant adrenergic beta-2 receptor expressed in CHO cells assessed as elevation in cAMP levels
# [4] = Apparent permeability from basolateral to apical side of human Caco-2 cell membrane; type: ADME, cell-based
# [5] = Half life in iv dosed rat; type: ADME, organism-based; conditions: in vivo
# [6] = Protein binding in rat plasma; type: ADME, cell-free; conditions: read-out: PPB (converted)
# [7] = Oral bioavailability po dosed rat; type: ADME, organism-based; conditions: in vivo
# [8] = Volume of distribution in iv dosed rat; type: ADME, organism-based; conditions: in vivo
# [9] = Total clearance in iv dosed rat; type: ADME, organism-based; conditions: in vivo
# [10] = Apparent permeability from apical to basolateral side of human Caco-2 cell membrane; type: ADME, cell-based
# [11] = Metabolic stability in human liver microsomes; type: ADME, Microsome
# [12] = system: Rattus norvegicus; assay: Unbound clearance in iv dosed rat; type: ADME, organism-based; conditions: in vivo
Compound,logD [1],Ratio EC50 [2],EC50 [3],other results
C[C@H](Cc1ccc2[nH]c(C(=O)NCC3CCC3)cc2c1)NC[C@H](O)c1ccc(O)c(CO)c1,1.9,410,0.051 nM,–
C[C@H](Cc1ccc2[nH]c(C(=O)NCc3c(F)cccc3F)cc2c1)NC[C@H](O)c1ccc(O)c(CO)c1,–,296,0.053 nM,–
C[C@H](Cc1ccc2[nH]c(C(=O)N(C)Cc3ccccc3)cc2c1)NC[C@H](O)c1ccc(O)c(CO)c1,2.1,882,0.022 nM,–
COc1cccc(OC)c1CNC(=O)c1cc2cc(C[C@@H](C)NC[C@H](O)c3ccc(O)c(CO)c3)ccc2n1Cc1ccccc1,–,237,0.687 nM,–
CSc1ccccc1CNC(=O)c1cc2cc(C[C@@H](C)NC[C@H](O)c3ccc(O)c(CO)c3)ccc2[nH]1,–,332,0.038 nM,–
C[C@H](Cc1ccc2[nH]c(C(=O)NCc3ccc(O)cc3)cc2c1)NC[C@H](O)c1ccc(O)c(CO)c1,–,75,0.164 nM,–
COc1cccc(OC)c1CNC(=O)c1cc2cc(C[C@@H](C)NC[C@H](O)c3ccc(O)c(CO)c3)ccc2[nH]1,2.2,4040,0.058 nM,Papp B→A [4]: 14 ×10⁻⁶ cm/s; half-life [5]: 96 min; fraction unbound [6]: 0.1; bioavailability [7]: < 5%; Vd [8]: 18 L/kg; clearance [9]: 130 mL/min/kg; Papp A→B [10]: < 1 ×10⁻⁶ cm/s; half-life [11]: 4 min; CL [12]: 1200 mL/min/kg
OCc1cc([C@@H](O)CNCCCCCCOCCCCc2ccccc2)ccc1O [SALMETEROL],2.1,–,–,–
C[C@H](Cc1ccc2[nH]c(C(=O)NCc3ccccn3)cc2c1)NC[C@H](O)c1ccc(O)c(CO)c1,–,1530,0.038 nM,–
C[C@H](Cc1ccc2[nH]c(C(=O)NCc3ccc(S(N)(=O)=O)cc3)cc2c1)NC[C@H](O)c1ccc(O)c(CO)c1,–,42,0.122 nM,–
CCn1c(C(=O)NCc2c(OC)cccc2OC)cc2cc(C[C@@H](C)NC[C@H](O)c3ccc(O)c(CO)c3)ccc21,–,254,2.55 nM,–
C[C@H](Cc1ccc2[nH]c(C(=O)NCc3nccs3)cc2c1)NC[C@H](O)c1ccc(O)c(CO)c1,0.8,1340,0.031 nM,–
C[C@H](Cc1ccc2[nH]c(C(=O)NCc3ccccc3)cc2c1)NC[C@H](O)c1ccc(O)c(CO)c1,–,480,0.049 nM,–
COc1cccc(OC)c1CNC(=O)c1cc2cc(C[C@@H](C)NC[C@H](O)c3ccc(O)c(CO)c3)ccc2n1C,–,1080,0.706 nM,–
C[C@H](Cc1ccc2[nH]c(C(=O)N[C@H](C)c3ccccc3)cc2c1)NC[C@H](O)c1ccc(O)c(CO)c1,2.2,585,0.058 nM,–
COc1ccccc1CNC(=O)c1cc2cc(C[C@@H](C)NC[C@H](O)c3ccc(O)c(CO)c3)ccc2[nH]1,2.2,1240,–,–
CC[C@H](Cc1ccc2[nH]c(C(=O)NCc3c(OC)cccc3OC)cc2c1)NC[C@H](O)c1ccc(O)c(CO)c1,–,5740,0.258 nM,–
COc1cccc(CCNC(=O)c2cc3cc(C[C@@H](C)NC[C@H](O)c4ccc(O)c(CO)c4)ccc3[nH]2)c1,2,35,0.254 nM,–
